For 26 compounds, pest or weed control results are on record in US20150322051A1, “Macrocyclic picolinamides as fungicides” (Dow AgroSciences LLC, priority 2014, published 2015).

Each structure is given as a SMILES string. Read-outs that look alike come from different tables or passages of the source.

The test system of test [1] is Mycosphaerella graminicola; anamorph: Septoria tritici (SEPTTR). Description: Leaf blotch of wheat (SEPTTR) whole-plant fungicidal test. It is filed as in vivo. The conditions noted are these: Zymoseptoria tritici, topical; for pest or weed control at 121.5 g/ha: low volume (track spray) application, 121.5 g/H; for pest or weed control at 100 ppm: high volume application.

In test [2] the test system is Puccinia triticina; synonym: Puccinia recondita f. sp. tritici (PUCCRT). Description: Wheat brown rust (PUCCRT) whole-plant fungicidal test. It is filed as in vivo. The conditions noted are these: topical; for pest or weed control at 121.5 g/ha: low volume (track spray) application, 121.5 g/H; for pest or weed control at 100 ppm: high volume application.
Where [3] appears, read: 24 h, 1 Day Protectant, read-out: Low Volume activity at 121.5 g/H SEPTTR 1DP (% disease control rating).
The mark [4] stands for this setting: 72 h, 3 Day Curative, read-out: Low Volume activity at 121.5 g/H SEPTTR 3DC (% disease control rating).
Where [5] appears, read: 24 h, 1 Day Protectant, read-out: Low Volume activity at 121.5 g/H PUCCRT 1DP (% disease control rating).
[6] abbreviates: 72 h, 3 Day Curative, read-out: Low Volume activity at 121.5 g/H PUCCRT 3DC (% disease control rating).
Where [7] appears, read: 24 h, 1 Day Protectant, read-out: High Volume activity at 100 ppm SEPTTR 1DP (% disease control rating).
[8] abbreviates: 72 h, 3 Day Curative, read-out: High Volume activity at 100 ppm SEPTTR 3DC (% disease control rating).
The mark [9] stands for this setting: 24 h, 1 Day Protectant, read-out: High Volume activity at 100 ppm PUCCRT 1DP (% disease control rating).
Where [10] appears, read: 72 h, 3 Day Curative, read-out: High Volume activity at 100 ppm PUCCRT 3DC (% disease control rating).

On to `COc1ccnc(C(=O)N[C@H]2CCC[C@H](Cc3ccc(C(F)(F)F)cc3)[C@@H](Cc3ccc(OC(F)(F)F)cc3)[C@H](C)OC2=O)c1OC(C)=O` [Compound 67], for which the pest or weed control at 121.5 g/ha in test [1] (setting [3]), in test [1] (setting [4]), in test [2] (setting [5]) and in test [2] (setting [6]) was less than 70% in each case.

Consider `COc1ccnc(C(=O)N[C@H]2CCC[C@H](Cc3ccccc3)[C@@H](Cc3ccc(OC(F)(F)F)cc3)[C@H](C)OC2=O)c1OCOC(C)=O` [Compound 68], for which the pest or weed control at 121.5 g/ha in test [1] (setting [3]), in test [1] (setting [4]), in test [2] (setting [5]) and in test [2] (setting [6]) was less than 70% each time.

For `CCOCC(=O)OCOc1c(OC)ccnc1C(=O)N[C@H]1CCC[C@H](Cc2ccccc2)[C@@H](Cc2ccc(OC(F)(F)F)cc2)[C@H](C)OC1=O` [Compound 69], the pest or weed control at 121.5 g/ha is more than 70% in test [1] (setting [3]), less than 70% in test [1] (setting [4]), less than 70% in test [2] (setting [5]) and less than 70% in test [2] (setting [6]).

`COc1ccnc(C(=O)N[C@H]2CCC[C@H](CCCc3ccccc3)[C@@H](Cc3ccccc3)[C@H](C)OC2=O)c1OCOC(C)=O` [Compound 70]: the pest or weed control at 121.5 g/ha in test [1] (setting [3]) is more than 70%; in test [1] (setting [4]), more than 70%; in test [2] (setting [5]), more than 70%; in test [2] (setting [6]), less than 70%.

As for `CCCC[C@@H]1[C@@H](Cc2ccccc2)CCC[C@H](NC(=O)c2nccc(OC)c2O)C(=O)O[C@H]1C` [Compound 71, N-((3S,7R,8R,9S)-7-benzyl-8-butyl-9-methyl-2-oxooxonan-3-yl)-3-hydroxy-4-methoxypicolinamide], the pest or weed control at 100 ppm was more than 70% in test [1] (setting [7]), less than 70% in test [1] (setting [8]), more than 70% in test [2] (setting [9]) and more than 70% in test [2] (setting [10]).

In the case of `CCCC[C@@H]1[C@@H](Cc2ccc(C(F)(F)F)cc2)CCC[C@H](NC(=O)c2nccc(OC)c2O)C(=O)O[C@H]1C` [Compound 72], the pest or weed control at 100 ppm in test [1] (setting [7]) is more than 70%; in test [1] (setting [8]), less than 70%; in test [2] (setting [9]), more than 70%; in test [2] (setting [10]), less than 70%.

Regarding `COc1ccnc(C(=O)N[C@H]2CCC[C@H](CCC(C)C)[C@@H](Cc3ccccc3)[C@H](C)OC2=O)c1O` [Compound 73], the pest or weed control at 100 ppm in test [1] (setting [7]) was more than 70%; in test [1] (setting [8]) it was more than 70%; in test [2] (setting [9]), more than 70%; in test [2] (setting [10]), less than 70%.

With `COc1ccnc(C(=O)N[C@H]2CCC[C@H](Cc3ccccc3)[C@@H](Cc3ccccc3)[C@H](C)OC2=O)c1O` [Compound 74], the pest or weed control at 100 ppm in test [1] (setting [7]), in test [1] (setting [8]), in test [2] (setting [9]) and in test [2] (setting [10]) was more than 70% each time.

In the case of `COc1ccnc(C(=O)N[C@H]2CCC[C@H](Cc3ccccc3)[C@@H](C3CCCC3)[C@H](C)OC2=O)c1O` [Compound 75], the pest or weed control at 100 ppm in test [1] (setting [7]) is more than 70%; in test [1] (setting [8]), more than 70%; in test [2] (setting [9]), more than 70%; in test [2] (setting [10]) it was less than 70%.

`COc1ccnc(C(=O)N[C@H]2CCC[C@H](Cc3ccc(Cl)cc3)[C@@H](CC(C)C)[C@H](C)OC2=O)c1O` [Compound 76]: the pest or weed control at 100 ppm in test [1] (setting [7]) is more than 70%; in test [1] (setting [8]), more than 70%; in test [2] (setting [9]), more than 70%; in test [2] (setting [10]) it was less than 70%.

On to `COc1ccnc(C(=O)N[C@H]2CCC[C@H](Cc3ccccc3)[C@@H](CCc3ccccc3)[C@H](C)OC2=O)c1O` [Compound 78], for which the pest or weed control at 100 ppm in test [1] (setting [7]) is more than 70%; in test [1] (setting [8]), more than 70%; in test [2] (setting [9]), more than 70%; in test [2] (setting [10]) it was less than 70%.

In the case of `COc1ccnc(C(=O)N[C@H]2CCC[C@H](Cc3ccc(Cl)cc3)[C@@H](Cc3ccccc3)[C@H](C)OC2=O)c1O` [Compound 79], the pest or weed control at 100 ppm was more than 70% in test [1] (setting [7]), less than 70% in test [1] (setting [8]), more than 70% in test [2] (setting [9]) and less than 70% in test [2] (setting [10]).

With `COc1ccnc(C(=O)N[C@H]2CCC[C@H](Cc3ccc(C(F)(F)F)cc3)[C@@H](CC(C)C)[C@H](C)OC2=O)c1O` [Compound 80], the pest or weed control at 100 ppm in test [1] (setting [7]) is more than 70%; in test [1] (setting [8]) it was less than 70%; in test [2] (setting [9]), more than 70%; in test [2] (setting [10]), less than 70%.

Consider `COc1ccnc(C(=O)N[C@H]2CCC[C@H](Cc3ccc(C(F)(F)F)cc3)[C@@H](Cc3ccccc3)[C@H](C)OC2=O)c1O` [Compound 81], for which the pest or weed control at 100 ppm is more than 70% in test [1] (setting [7]), less than 70% in test [1] (setting [8]), more than 70% in test [2] (setting [9]) and less than 70% in test [2] (setting [10]).

For `CCC[C@H]1CCC[C@H](NC(=O)c2nccc(OC)c2O)C(=O)O[C@@H](C)[C@@H]1Cc1ccccc1` [Compound 82], the pest or weed control at 100 ppm was less than 70% in test [1] (setting [7]), more than 70% in test [1] (setting [8]), more than 70% in test [2] (setting [9]) and more than 70% in test [2] (setting [10]).

Take `COc1ccnc(C(=O)N[C@H]2CCC[C@H](CCC(C)C)[C@@H](CCc3ccccc3)[C@H](C)OC2=O)c1O` [Compound 83]: the pest or weed control at 100 ppm was more than 70% in test [1] (setting [7]), less than 70% in test [1] (setting [8]), more than 70% in test [2] (setting [9]) and less than 70% in test [2] (setting [10]).

Consider `COc1ccnc(C(=O)N[C@H]2CCC[C@H](Cc3ccc(Cl)cc3)[C@@H](C3CCCC3)[C@H](C)OC2=O)c1O` [Compound 84], for which the pest or weed control at 100 ppm in test [1] (setting [7]) is more than 70%; in test [1] (setting [8]), more than 70%; in test [2] (setting [9]), more than 70%; in test [2] (setting [10]) it was less than 70%.

As to `COc1ccnc(C(=O)N[C@H]2CCC[C@H](CCCc3ccccc3)[C@@H](CCc3ccccc3)[C@H](C)OC2=O)c1O` [Compound 85], the pest or weed control at 100 ppm in test [1] (setting [7]) was more than 70%; in test [1] (setting [8]), less than 70%; in test [2] (setting [9]), more than 70%; in test [2] (setting [10]) it was less than 70%.

As for `COc1ccnc(C(=O)N[C@H]2CCC[C@H](Cc3ccc(C(F)(F)F)cc3)[C@@H](Cc3ccc(F)cc3)[C@H](C)OC2=O)c1O` [Compound 86], the pest or weed control at 100 ppm in test [1] (setting [7]) is less than 70%; in test [1] (setting [8]), less than 70%; in test [2] (setting [9]), more than 70%; in test [2] (setting [10]), less than 70%.

Take `COc1ccnc(C(=O)N[C@H]2CCC[C@H](CCC(C)C)[C@@H](C3CCCC3)[C@H](C)OC2=O)c1O` [Compound 87]: the pest or weed control at 100 ppm was more than 70% in test [1] (setting [7]), less than 70% in test [1] (setting [8]), more than 70% in test [2] (setting [9]) and less than 70% in test [2] (setting [10]).

Take `COc1ccnc(C(=O)N[C@H]2CCC[C@H](Cc3ccccc3)[C@@H](CCC(C)C)[C@H](C)OC2=O)c1O` [Compound 88]: the pest or weed control at 100 ppm in test [1] (setting [7]) was less than 70%; in test [1] (setting [8]), more than 70%; in test [2] (setting [9]), more than 70%; in test [2] (setting [10]) it was less than 70%.

As to `COc1ccnc(C(=O)N[C@H]2CCC[C@H](Cc3ccccc3)[C@@H](c3ccccc3)[C@H](C)OC2=O)c1O` [Compound 90], the pest or weed control at 100 ppm in test [1] (setting [7]), in test [1] (setting [8]), in test [2] (setting [9]) and in test [2] (setting [10]) was more than 70% throughout.

Take `CCC[C@H]1CCC[C@H](NC(=O)c2nccc(OC)c2O)C(=O)O[C@@H](C)[C@@H]1c1ccccc1` [Compound 91]: the pest or weed control at 100 ppm in test [1] (setting [7]) was more than 70%; in test [1] (setting [8]), more than 70%; in test [2] (setting [9]) it was more than 70%; in test [2] (setting [10]) it was less than 70%.

Consider `COc1ccnc(C(=O)N[C@H]2CCC[C@H](CCCc3ccccc3)[C@@H](CC(C)C)[C@H](C)OC2=O)c1O` [Compound 92], for which the pest or weed control at 100 ppm in test [1] (setting [7]) is more than 70%; in test [1] (setting [8]), less than 70%; in test [2] (setting [9]), more than 70%; in test [2] (setting [10]) it was less than 70%.

For the compound `COc1ccnc(C(=O)N[C@H]2CCC[C@H](CC3CC3)[C@@H](Cc3ccccc3)[C@H](C)OC2=O)c1O` [Compound 94], the pest or weed control at 121.5 g/ha in test [1] (setting [3]) is more than 70%; in test [1] (setting [4]) it was more than 70%; in test [2] (setting [5]), more than 70%; in test [2] (setting [6]), less than 70%.

As for `COc1ccnc(C(=O)N[C@H]2CCC[C@H](Cc3ccccc3)[C@@H](Cc3ccc(F)cc3)[C@H](C)OC2=O)c1O` [Compound 95], the pest or weed control at 121.5 g/ha is more than 70% in test [1] (setting [3]), more than 70% in test [1] (setting [4]), more than 70% in test [2] (setting [5]) and less than 70% in test [2] (setting [6]).
